Data: patent US9631050B2, “Antimicrobial cationic polycarbonates” (International Business Machines Corporation, priority 2013, dated 2017)

Test system: mammalian red blood cells
Experimental: HC50 is defined as the concentration (in mg/L) of cationic polymer that causes 50% of mammalian red blood cells to undergo hemolysis. HC50 values of 500 mg/L or higher are desirable.
Fresh rabbit blood cells or rat blood cells were subjected to 25× dilution with phosphate buffered saline (PBS) to obtain an approximate 4% v/v suspension for use in this experiment. Red blood cell suspension (300 microliters) was added to each tube containing an equal volume (300 microliters) of polymer solution in PBS (with final polymer concentrations ranging from 3.9-500 mg/L). The tubes were then incubated at 37° C. for 1 hour before they were centrifuged at 1000×g for 5 min. Aliquots (100 microliters) of supernatant were transferred to each well of a 96-well plate and analyzed for hemoglobin release at 576 nm using a microplate reader (TECAN, Switzerland). Red blood cells suspension incubated with PBS was used as negative control. Absorbance of red blood cells lyzed with 0.1% v/v Triton X-100 was used as the positive control and taken to be 100% hemolytic. Percentage of hemolysis was calculated using the following formula: Hemolysis (%)=[(O.D.576 nm of treated sample−O.D.576 nm of negative control)/(O.D.576 nm of positive control−O.D.576 nm of negative control)]×100. Data are expressed as mean±standard deviations of 4 replicates.

HC50: 250 mg/L
Substance: Butyl imidazole [Example 36]
